Measurements from PMC7395068, “The evolution of strategies to minimise the risk of human drug-induced liver injury (DILI) in drug discovery and development” (Archives of Toxicology, 2020).
Read-outs that look alike come from different tables or passages of the source. Blank lines part the entries; values can stand above or below the compound they belong to.

Assays:
PHH = conditions: cited from earlier work
hLiMTs [1] = conditions: cited from earlier work
hLiMTs [2] = assay: Combined HCI (HCS) and cellular ATP 3D assay in hLiMTs; conditions: for AC50 / minimal effective concentration: Homo sapiens
HepaRG spheroids = assay: Combined HCI (HCS) and cellular ATP 3D assay in HepaRG spheroids; conditions: HepaRG; for AC50 / minimal effective concentration: Homo sapiens
[3] = cited from earlier work
HepG2 cells [4] = conditions: cited from earlier work
HepG2 cells [5] = conditions: In vitro Assay; ref Persson 2013; cited from earlier work
human hepatocytes = conditions: In vitro Assay; ref Xu 2008; cited from earlier work
[6] = test system: THLE or HepG2 cells, isolated mitochondria, BSEP; conditions: In vitro Assay; ref Aleo 2019; cited from earlier work
[7] = cited from earlier work; remark: listed apart in the source
[8] = test system: isolated mouse liver mitochondria; conditions: In vitro Assay; ref Porceddu 2012; cited from earlier work
rBsep = conditions: cited from earlier work
[9] = test system: primary human hepatocytes, NIH3T3 fibroblasts, BSEP, CYP3A4; conditions: In vitro Assay; ref Schadt 2015; cited from earlier work
[10] = In vitro Assay, ref Proctor 2017
[11] = In vitro Assay, ref O'Brien 2006
[12] = In vitro Assay, ref Dawson 2012

Compound: CO[C@@]12[C@H](COC(N)=O)C3=C(C(=O)C(C)=C(N)C3=O)N1C[C@@H]1N[C@@H]12 [mitomycin]
PHH ATP <100uM (PHH): +VE (key: +VE: IC50 threshold of 100 µM)

hLiMTs <10 uM All (hLiMTs [2]; hLiMTs, all endpoints, cut-off <10 uM): +ve (<10 uM)
HepaRG <10 uM All (HepaRG spheroids; all endpoints, cut-off <10 uM): +ve (<10 uM)
Compound: NCCCC(O)(P(=O)(O)O)P(=O)(O)O [alendronate]
PHH/100uM, Proctor (2017) (PHH; 2D PHH, ATP, IC50 threshold 100 µM, ref Proctor et al. 2017): -VE
PHH ATP <100uM (PHH; [10]): -VE
hLiMTs ATP <100uM (hLiMTs [1]; [10]): -VE
hLiMTs/100uM, Proctor (2017) (hLiMTs [1]; hLiMTs, ATP, IC50 threshold 100 µM, ref Proctor et al. 2017): -VE
AC50 (hLiMTs [2]; read-out: ATP endpoint AC50): 7.71 µM
minimal effective concentration (hLiMTs [2]; read-out: ATP endpoint MEC): 2.86 µM
AC50 (hLiMTs [2]; read-out: HCS endpoint AC50): 15.6 µM
minimal effective concentration (hLiMTs [2]; read-out: HCS endpoint MEC): 2.24 µM
AC50 (HepaRG spheroids; read-out: ATP endpoint AC50): 0.822 µM
minimal effective concentration (HepaRG spheroids; read-out: ATP endpoint MEC): 0.291 µM
AC50 (HepaRG spheroids; read-out: HCS endpoint AC50): 3.13 µM
minimal effective concentration (HepaRG spheroids; read-out: HCS endpoint MEC): 0.58 µM

Compound: CCN1C(=O)NC(c2ccccc2)C1=O (stereo not drawn) [ethotion]
PHH ATP <100uM (PHH): -VE
hLiMTs ATP <100uM (hLiMTs [1]): -VE

Compound: CCC1=C(C)CN(C(=O)NCCc2ccc(S(=O)(=O)NC(=O)N[C@H]3CC[C@H](C)CC3)cc2)C1=O [glimepiride]
DILI +VE (5-8), DILI -VE (-4) ([3]; ref Chen 2016): +VE
DILI severity category ([3]; ref Chen 2016): vLess-DILI-Concern
Structural based (HCI) (HepG2 cells [4]; [11]): -VE
Cluser analysis (HepG2 cells [5]): -VE
Structural based (HCI) (HepG2 cells [5]): -VE
Structural based (HCI) (human hepatocytes): -VE
Partition Hybrid HRM Score [6]: -VE
Ro2 Hybrid HRM Score [6]: -VE
In vivo DILI ([7]; ref Aleo 2019): +VE
In vivo DILI ([7]; ref O'Brien 2006): -VE
In vivo DILI ([7]; ref Persson 2013): -VE
In vivo DILI ([7]; ref Porceddu 2012): +VE
In vivo DILI ([7]; ref Xu 2008): -VE
in vitro data EC2<=1x Cmax [8]: -VE
in vitro data EC20<=2uM [8]: +VE

Compound: CCN(CC)CCCC(C)Nc1c2ccc(Cl)cc2nc2ccc(OC)cc12 (stereo not drawn) [quinacrine]
Structural based (HCI) (HepG2 cells [4]): +VE (key: +VE: lowest HCI endpoint IC50 (or in the absence of dose–response < 100 µM) < 30 × total human plasma exposure levels (Cmax.tot))
PHH ATP <100uM (PHH): +VE (key: +VE: IC50 threshold of 100 µM)
hLiMTs ATP <100uM (hLiMTs [1]): +VE (key: +VE: IC50 threshold of 100 µM)
In vivo DILI ([7]; in vivo): +VE

Compound: CC(C)c1nc(N(C)S(C)(=O)=O)nc(-c2ccc(F)cc2)c1/C=C/[C@@H](O)C[C@@H](O)CC(=O)O [rosuvastatin]
DILI +VE (5-8), DILI -VE (-4) ([3]; ref Chen 2016): +VE
DILI severity category ([3]; ref Chen 2016): vLess-DILI-Concern
Structural based (HCI) (HepG2 cells [4]; [11]): +VE (lowest HCI endpoint IC50 (or in the absence of dose–response < 100 µM) < 30 × total human plasma exposure levels (Cmax.tot))
PHH ATP <100uM (PHH; [10]): +VE (IC50 threshold of 100 µM)
hLiMTs ATP <100uM (hLiMTs [1]; [10]): +VE (IC50 threshold of 100 µM)
In vivo DILI ([7]; ref O'Brien 2006): +VE
In vivo DILI ([7]; ref Proctor 2017): +VE

Compound: COC(=O)C1=C(C)NC(C)=C(C(=O)OC)C1c1ccccc1[N+](=O)[O-] [nifedipine]
Inhibition of rBsep cutoff<3 (rBsep): +VE

Compound: CC1=C(/C=C/C(C)=C/C=C/C(C)=C/C(=O)O)C(C)(C)CCC1 [tretinoin]
DILI +VE (5-8), DILI -VE (-4) ([3]; ref Chen 2016): -VE
DILI severity category ([3]; ref Chen 2016): Ambiguous DILI-concern
PHH ATP <100uM (PHH; [10]): -VE
hLiMTs ATP <100uM (hLiMTs [1]; [10]): +VE (IC50 threshold of 100 µM)
In vivo DILI ([7]; ref Proctor 2017): +VE

Compound: CN[C@@H]1[C@H](O)[C@H](NC)[C@H]2O[C@@]3(O)C(=O)C[C@@H](C)O[C@H]3O[C@@H]2[C@H]1O [spectinomycin]
DILI +VE (5-8), DILI -VE (-4) ([3]; ref Chen 2016): -VE
DILI severity category ([3]; ref Chen 2016): Ambiguous DILI-concern
PHH ATP <100uM (PHH; [10]): -VE
hLiMTs ATP <100uM (hLiMTs [1]; [10]): -VE
In vivo DILI ([7]; ref Porceddu 2012): +VE
In vivo DILI ([7]; ref Proctor 2017): +VE
in vitro data EC2<=1x Cmax [8]: +VE
in vitro data EC20<=2uM [8]: +VE

Compound: Cc1cnc(NC(=O)C2=C(O)c3ccccc3S(=O)(=O)N2C)s1 [meloxicam]
DILI +VE (5-8), DILI -VE (-4) ([3]; in vivo): +VE
DILI severity category ([3]; in vivo): vLess-DILI-Concern
Cellular toxicity (3T3 cells) [9]: -VE
Combined Assay [9]: -VE
GSH adduct HML [9]: -VE
Hepatocyte cellular toxicity [9]: -VE
MitoTox 3T3 [9]: -VE
TDI CYP3A4 [9]: -VE
hBSEP inhibition [9]: -VE
PHH ATP <100uM (PHH): -VE
hLiMTs ATP <100uM (hLiMTs [1]): -VE

Compound: CC(C)(C)NC[C@H](O)COc1ccccc1C1CCCC1 [penbutolol]
DILI +VE (5-8), DILI -VE (-4) ([3]; ref Chen 2016): -VE
DILI severity category ([3]; ref Chen 2016): vNo-DILI-Concern
Cellular toxicity (3T3 cells) [9]: -VE
Combined Assay [9]: -VE
GSH adduct HML [9]: -VE
Hepatocyte cellular toxicity [9]: -VE
MitoTox 3T3 [9]: -VE
TDI CYP3A4 [9]: -VE
hBSEP inhibition [9]: -VE
Partition Hybrid HRM Score [6]: -VE
Ro2 Hybrid HRM Score [6]: -VE
PHH ATP <100uM (PHH; [10]): +VE (IC50 threshold of 100 µM)
hLiMTs ATP <100uM (hLiMTs [1]; [10]): +VE (IC50 threshold of 100 µM)
In vivo DILI ([7]; ref Aleo 2019): -VE
In vivo DILI ([7]; ref Proctor 2017): -VE
In vivo DILI ([7]; ref Schadt 2015): -VE

Compound: C[N+](C)(C)C[C@H](O)CC(=O)[O-] [levocarnitine]
PHH ATP <100uM (PHH; [10]): -VE
hLiMTs ATP <100uM (hLiMTs [1]; [10]): -VE
In vivo DILI ([7]; ref Proctor 2017): -VE

Compound: O=C(C1CCCCC1)N1CC(=O)N2CCc3ccccc3C2C1 (stereo not drawn) [praziquantel]
Structural based (HCI) (HepG2 cells [4]; [11]): +VE
Inhibition of rBsep cutoff<1& cmax u>.2 (rBsep; [12]): -VE
Inhibition of rBsep cutoff<3 (rBsep; [12]): +VE
